Assay results as given in PMC6372602, “On-target and off-target effects of novel orthosteric and allosteric activators of GPR84” (Scientific Reports, 2019).
Values belong to the compound of their own block, whether it stands above or below them.

Legend:
human GPR35a = biological target: T1, human GPR35a (Homo sapiens, UniProt Q9HC97); test: β-arrestin-2 recruitment BRET, HEK293 cells; type: cell-based; conditions: agonist mode
T1 construct: gene GPR35; C-terminal eYFP tag, HEK293 cells co-transfected with luciferase-tagged β-arrestin-2

mouse GPR84-Gαi2 [1] = biological target: T2, mouse GPR84-Gαi2 (Mus musculus, UniProt Q8CIM5); test: […]GTPγS binding, membranes; type: biochemical; conditions: […] °C, pH […] GDP
T2 construct: N-terminal FLAG-tagged mouse GPR84 fused to Gαi2 (transducer / reporter; silent C636T in Gαi2); doxycycline-inducible Flp-In T-REx 293 cells; membranes

mouse GPR35 = biological target: T3, mouse GPR35 (Mus musculus, UniProt Q9ES90); test: β-arrestin-2 recruitment BRET, HEK293 cells; type: cell-based; conditions: agonist mode
T3 construct: C-terminal eYFP tag, HEK293 cells co-transfected with luciferase-tagged β-arrestin-2

[2] = biological target: T4, mouse GPR84 (RAW264.7 cells) (Mus musculus, UniProt Q8CIM5); test: […]GTPγS binding, membranes; type: biochemical; conditions: agonist, LPS-treated cells, […] °C, pH […] GDP
human GPR84-Gαi2 [3] = biological target: T5, human GPR84-Gαi2 (Homo sapiens, UniProt Q9NQS5); test: […]GTPγS binding, membranes; type: biochemical; conditions: partial agonist, allosteric; […] °C, pH […] GDP
T5 construct: doxycycline-inducible Flp-In T-REx 293 cells; membranes

mouse GPR84-Gαi2 [4] = biological target: T2, mouse GPR84-Gαi2; test: inhibition of agonist-stimulated […]GTPγS binding, membranes; type: biochemical; conditions: antagonist; versus EC80 2-HTP
GPR84 (THP-1 cells) [5] = biological target: T6, GPR84 (THP-1 cells) (Homo sapiens, UniProt Q9NQS5); test: as above; type: biochemical; conditions: antagonist, non-competitive; LPS-treated cells; versus EC80 2-HTP
T6 construct: endogenous receptor in membranes of LPS-treated THP-1 monocytes

[6] = biological target: T4, mouse GPR84 (RAW264.7 cells); test: as above; type: biochemical; conditions: antagonist; LPS-treated cells; versus EC80 2-HTP
human GPR84-Gαi2 [7] = biological target: T5, human GPR84-Gαi2; test: as above; type: biochemical; conditions: antagonist, non-competitive; versus EC80 2-HTP
GPR84 (THP-1 cells) [8] = biological target: T6, GPR84 (THP-1 cells); test: saturation radioligand binding, membranes; conditions: labelled compound; antagonist; LPS-treated cells; […] °C, pH […]

T4 sequence (Q8CIM5 whole entry): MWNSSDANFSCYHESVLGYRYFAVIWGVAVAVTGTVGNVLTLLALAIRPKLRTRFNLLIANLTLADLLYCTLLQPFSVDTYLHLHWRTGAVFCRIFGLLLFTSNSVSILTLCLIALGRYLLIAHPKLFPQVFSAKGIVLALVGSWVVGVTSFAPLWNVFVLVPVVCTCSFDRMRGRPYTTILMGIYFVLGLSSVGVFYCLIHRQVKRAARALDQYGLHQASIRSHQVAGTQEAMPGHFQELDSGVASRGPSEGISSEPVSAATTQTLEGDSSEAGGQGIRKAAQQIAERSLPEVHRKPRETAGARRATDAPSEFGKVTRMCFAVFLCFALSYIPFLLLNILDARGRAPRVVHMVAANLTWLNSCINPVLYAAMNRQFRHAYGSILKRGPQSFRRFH
T3 sequence (Q9ES90 whole entry): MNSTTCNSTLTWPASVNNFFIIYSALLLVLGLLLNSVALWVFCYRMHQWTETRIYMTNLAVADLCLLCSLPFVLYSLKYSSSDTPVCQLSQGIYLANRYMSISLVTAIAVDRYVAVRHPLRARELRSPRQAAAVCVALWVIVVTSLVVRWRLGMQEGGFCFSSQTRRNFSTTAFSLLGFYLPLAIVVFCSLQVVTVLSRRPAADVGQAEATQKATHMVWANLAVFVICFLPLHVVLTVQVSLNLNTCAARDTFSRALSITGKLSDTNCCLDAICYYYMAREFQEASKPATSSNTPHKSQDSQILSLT
T6 sequence (Q9NQS5 whole entry): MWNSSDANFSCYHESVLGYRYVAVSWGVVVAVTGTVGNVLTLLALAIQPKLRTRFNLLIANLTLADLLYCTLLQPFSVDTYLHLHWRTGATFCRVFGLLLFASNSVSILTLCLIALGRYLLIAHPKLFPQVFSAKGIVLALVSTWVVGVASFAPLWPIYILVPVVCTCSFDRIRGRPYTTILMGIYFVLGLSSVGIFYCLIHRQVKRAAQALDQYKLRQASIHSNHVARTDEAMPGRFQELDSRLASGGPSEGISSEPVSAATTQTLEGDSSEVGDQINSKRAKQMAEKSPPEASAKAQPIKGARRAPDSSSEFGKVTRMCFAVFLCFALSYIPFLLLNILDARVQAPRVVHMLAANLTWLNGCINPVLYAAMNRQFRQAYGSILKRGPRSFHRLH
T5 sequence (Q9NQS5 whole entry): as above
T1 sequence (Q9HC97 whole entry): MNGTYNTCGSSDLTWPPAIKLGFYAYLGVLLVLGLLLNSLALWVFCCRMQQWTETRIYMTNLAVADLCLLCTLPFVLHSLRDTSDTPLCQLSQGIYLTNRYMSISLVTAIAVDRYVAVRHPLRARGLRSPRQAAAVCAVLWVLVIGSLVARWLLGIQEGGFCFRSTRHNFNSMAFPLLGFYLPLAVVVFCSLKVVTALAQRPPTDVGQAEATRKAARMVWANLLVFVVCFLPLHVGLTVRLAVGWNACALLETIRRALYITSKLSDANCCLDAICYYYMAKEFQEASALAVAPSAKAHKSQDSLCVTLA

pEC50 (mouse GPR84-Gαi2 [1]; agonist): 7.52 ± 0.11 | pEC50 [2]: 7.58 ± 0.08
Compound: CCCCCCSc1nc(O)cc(O)n1 [2-HTP, 2-(hexylthiol)pyrimidine-4,6 diol]
β-arrestin-2 recruitment BRET, HEK293 cells (human GPR35a): 2-HTP was also unable to activate human GPR35 | β-arrestin-2 recruitment BRET, HEK293 cells (mouse GPR35): neither PSB-16671 nor 2-HTP was able to activate mouse GPR35

pEC50 (mouse GPR84-Gαi2 [1]; partial agonist, allosteric): 5.37 ± 0.08
Compound: c1ccc2c(Cc3c[nH]c4ccccc34)c[nH]c2c1 [DIM]
EC50 (human GPR84-Gαi2 [3]): Equivalent studies using DIM confirmed the higher potency of PSB-16671

pEC50 (mouse GPR84-Gαi2 [1]; agonist, allosteric): 6.53 ± 0.07 | pEC50 ([2]; allosteric): 6.75 ± 0.10
Compound: Fc1cc(F)c2[nH]cc(Cc3c[nH]c4c(F)cc(F)cc34)c2c1 [PSB-16671, di(5,7-difluoro-1H-indole-3-yl)methane]
β-arrestin-2 recruitment BRET, HEK293 cells (mouse GPR35): neither PSB-16671 nor 2-HTP was able to activate mouse GPR35

pIC50 (mouse GPR84-Gαi2 [4]): 6.90 ± 0.05 | pIC50 (GPR84 (THP-1 cells) [5]): 7.86 ± 0.02 | pIC50 [6]: 6.50 ± 0.06 | pIC50 (human GPR84-Gαi2 [7]): 8.14 ± 0.06
Compound: O=c1nc(OCC2COCCO2)cc2n1CCc1cc(C#CCNc3ccccc3)ccc1-2 (centres unmarked) [compound 107, 2-([1,4]dioxan-2-ylmethoxy)-9-(3-phenylamino-prop-1-ynyl)-6,7-dihydro-pyrimido[6,1-a]isoquinolin-4-one]

Kd (GPR84 (THP-1 cells) [8]): 0.18 ± 0.02 nM
Compound: [^3H]9543
